Results from patent publication US12213479B2, “Monoterpenoid/phenylpropanoid-containing compounds and methods of their making and use as herbicides” (KITTRICH CORPORATION, priority 2016, dated 2025).
Entries after “also recorded” stand apart in the source; their conditions may differ.

Assays:
Soybean plants [1] = assay: Foliar spray assay, soybean plants; format: in vivo; details: 1% foliar spray; for phytotoxic effects on soybean plants (words), foliar spray: 1-month old soybean plants, up to 14 days after exposure; for chlorosis / leaf death: soybean plants
Protocol: Soybean plants were planted under 1 cm of potting soil and watered every 2-3 days as necessary. Plants were grown in pots (6″ wide×4.5″ deep) with approximately 800 mL of soil for each plant. Plants germinated approximately 3-5 days after being planted. Plants were grown in a greenhouse under a constant temperature and light environment (25±5° C., 12 hr:12 hr light:dark cycle). Plants were grown until reaching 4 weeks old and were then used for the foliar spray experiment.
Formulations were made to include 1% thymyloxyacetic acid, 0.269% potassium hydroxide, and 0.25% Triton-X 100™. Soybean plants were sprayed with 10 mists from a MAINStays™ Ironing Spray bottle set to the mist setting. This corresponded to the minimum amount necessary to cause dripping from the leaves of the plants. […] Plants were placed under high intensity light (directly below greenhouse lamps) and low intensity light (not under lamp/ambient light environment). Light intensity was chosen as a factor for this experimental design. […] This effect is greatly diminished under low intensity light conditions. If thymyloxyacetic acid is causing phytotoxicity in the same mechanism of action as other plant terpenoids, there should be a drastic difference in the phytotoxicity among these different levels of light intensity.

[2] = test system: Giant Foxtail (Setaria faberi); assay: Weed soil drench assay, giant foxtail; format: in vivo; details: for Percentage mortality: Giant Foxtail, 40 mL of 5% solution, soil drench; for chlorosis and phytotoxicity: giant foxtail, 40 mL of 5%, 2 days after application
Protocol: (§1) Giant foxtail seeds were obtained from the Department of Agronomy at Iowa State University. Three seeds were sown for each pot (6″ wide×4.5″ deep) with approximately 800 mL of soil for each plant. Only plants that germinated were used for the study. Plants were treated 1-2 weeks post emergence. Plants were watered every 2-3 days as needed.
(§2) Formulations of the various active ingredients were created using the monoterpenoid derivatives, potassium hydroxide, and Triton-X 100™ to aid in the solvation of the active ingredient. Formulations included 5% active ingredient by weight (0.5-1 g/100 ml water), with a 1:1 molar ratio of potassium hydroxide used to aid in the solvation (135-269 mg/100 mL for both thymyloxyacetic acid and carvacryloxyacetic acid). […] Observations were performed 2 days and 3 weeks after soil drench to determine the effects of the treatments on the various types and stages of plants. Phytotoxicity is reported as percentage of total plants treated compared to a control treatment that was exposed to a similar formulation (without the active monoterpenoid derivatives).

[3] = test system: Palmer Amaranth (Amaranthus palmeri); assay: Toxicity assay (probit LC50), Palmer amaranth; format: in vivo
Excerpt: (§3) Palmer amaranth seeds were obtained from the Department of Agronomy at Iowa State University. Individual seeds were sown for each pot (1.5″ wide×3″ deep) with approximately 7.5 g of soil for each plot. Five seeds/plot were sown into numerous plots. After one month of germination, germinated plants were counted in each plot and this number was used for the total number of plants challenged per plot in the toxicity assessment
(§4) The total number of plants were counted in each plot in 24×6 hexagonal small plot planter tray. The number of germinated seeds in each plot was enumerated after one month, and for each plot this number was recorded and used as the total for each plot. Differing concentrations of thymyloxyacetic acid was applied in 5% Triton-X 100 and 1:1 molar ratio potassium hydroxide:thymyloxyacetic acid to aid in the solubility of the compound in water. Ten mL of solution was applied to each plot, and the mortality of the plants was assessed at 3 days and 2 weeks post application (for some treatments). Mortality at these time points were enumerated out of the total plants germinated in each plot at the beginning of the assay. At both time points, the total number of dead plants and total number of plants at the beginning of the assay were recorded for each observation. A Probit model was used to calculate the LC50 values for each of the compounds explored in this assay. A formulation control (with no active ingredient) was screened against a number of plants and factored into the final probit model. This formulation control had little-to-no effect by itself.

Soybean plants [4] = assay: Soil drench assay, soybean plants; format: in vivo; set-up: key: NOE: No Observable Effect; XXX: Dead; -: the lowest phytotoxic effect; --: phytotoxicity that did not result in death; ---: phytotoxicity that did not result in death; ------: the highest; details: 3-weeks after treatment, Old Plants, 7%, 40 mL
[5] = test system: various dicot weed species; assay: Selectivity assessment, dicot weed species compared to bluegrass; format: in vivo; details: range over various weed species
Excerpt: Kentucky bluegrass seeds were purchased in a bag under the commercial name of. Individual seeds were sown for each pot (1.5″ wide×3″ deep) with approximately 7.5 g of soil for each plot. 10 seeds/plot was sown into numerous plots. After one month of germination, germinated plants were counted in each plot and this number was used for the total number of plants challenged per plot in the toxicity assessment.
as §4, with “A formulation control (with no active ingredient) was screened against a number of plants and factored into the final probit model. This formulation control had little-to-no effect by itself.” left out

[6] = test system: Velvetleaf (Abutilon theophrasti); assay: Weed soil drench assay, velvetleaf; format: in vivo; details: for Percentage mortality: Velvet Leaf, 40 mL of 5% solution, soil drench; for chlorosis and phytotoxicity: velvet leaf, 40 ml of 5%, 2 days after application
Protocol: Velvetleaf plants were obtained from the wild in prairie fields in Iowa. Plants were carefully transplanted into pots (6″ wide×4.5″ deep) with approximately 800 mL of soil for each plant. Plants were maintained in a greenhouse under a constant temperature and light environment (25±5° C., 12 hr: 12 hr light: dark cycle). Plants were watered every 2-3 days as needed.
as §2

[7] = test system: Dandelion (Taraxacum officinale); assay: Weed soil drench assay, dandelion; format: in vivo; details: for Percentage mortality: Dandelions, 40 mL of 5% solution, soil drench; for chlorosis and phytotoxicity: dandelions, 40 mL of 5%, 2 days after application
Protocol: as §1, with “Dandelion” for “Giant foxtail”, “native prairie fields in Ames, IA. Individual” for “the Department of Agronomy at Iowa State University. Three”
as §2

[8] = test system: Cocklebur (Xanthium spp.); assay: Toxicity assay (probit LC50), cocklebur; format: in vivo
Excerpt: as §3, with “Cocklebur burs” for “Palmer amaranth seeds”, “One bur/plot was” for “Five seeds/plot were”, “assessment.” for “assessment”
as §4

corn seeds = assay: Germination assay, corn seeds coated with compound; details: for corn seed germination at day 3: seed coating
Wood sorrel = assay: Foliar spray, wood sorrel; format: in vivo; details: 20 sprays of 1%; observed 2 days after exposure and later
Protocol: Wood sorrel on the ground of the greenhouse was also treated with active ingredient in order to better assess the effects of foliar treatments on multiple plant species. A patch of wood sorrel was (approximately 4′×3′) was treated with 20 sprays (mist setting) from a MAINStays ironing spray bottle. Effects of the spray were recorded 2 days after exposure.

Cc1ccc(C(C)C)c(OCC(=O)O)c1 [thymyloxyacetic acid, 2-(2-isopropyl-5-methylphenoxy)acetic acid]
phytotoxic effects on soybean plants (words), foliar spray (Soybean plants [1]): significant chlorosis and wilting
phytotoxic effects on soybean plants (words), foliar spray (Soybean plants [1]; listed as Thymyloxyacetic acid): significant phytotoxic effects
chlorosis (Soybean plants [1]; High intensity light): ✓
leaf death (Soybean plants [1]; High intensity light): ✓
chlorosis (Soybean plants [1]; Low intensity light): ✓
leaf death (Soybean plants [1]; Low intensity light): ✓
Percentage mortality ([2]; 2-days after treatment): 100%
Percentage mortality ([2]; 3-weeks after treatment): 100%
chlorosis and phytotoxicity [2]: significant chlorosis and phytotoxicity
LC50 Value ([3]; Palmer Amaranth (Table 6)): 1700 ppm
Selective Toxicity Compared to Bluegrass ([3]; Palmer Amaranth compared to bluegrass): 2.06
LC50 Value ([3]; Palmer Amaranth, 2-week post application, probit): 1350 ppm
LC50 Value ([3]; Palmer Amaranth, 3-day post application, probit): 1700 ppm
phytotoxicity (qualitative), soil drench (Soybean plants [4]): XXX
selectivity ratio compared to a blue grass species [5]: 2.06-5 fold
Percentage mortality ([6]; 2-days after treatment): 100%
Percentage mortality ([6]; 3-weeks after treatment): 100%
chlorosis and phytotoxicity [6]: significant chlorosis and phytotoxicity
Percentage mortality ([7]; 2-days after treatment): 100%
Percentage mortality ([7]; 3-weeks after treatment): 100%
chlorosis and phytotoxicity [7]: significant chlorosis and phytotoxicity
LC50 Value ([8]; Cocklebur): 1530 ppm
Selective Toxicity Compared to Bluegrass ([8]; Cocklebur compared to bluegrass): 2.29
inhibition of corn seed germination (corn seeds; seed coating 1% weight compound/weight seed, 3, 5, 7 days): second most significant inhibition
corn seed germination at day 3 (corn seeds): prevented any germination

Cc1ccc(C(C)C)cc1OCC(=O)O [carvacryloxyacetic acid, 2-(5-isopropyl-2-methylphenoxy)acetic acid]
Percentage mortality ([2]; 2-days after treatment): 100%
Percentage mortality ([2]; 3-weeks after treatment): 100%
chlorosis and phytotoxicity [2]: significant chlorosis and phytotoxicity
phytotoxicity (qualitative), soil drench (Soybean plants [4]): XXX
phytotoxic effect on wood sorrel, foliar spray (Wood sorrel): Death followed quickly after 2 days post-exposure; also recorded: immediate and widespread chlorosis followed by relatively quick plant death
Percentage mortality ([6]; 2-days after treatment): 100%
Percentage mortality ([6]; 3-weeks after treatment): 100%
chlorosis and phytotoxicity [6]: significant chlorosis and phytotoxicity
Percentage mortality ([7]; 2-days after treatment): 100%
Percentage mortality ([7]; 3-weeks after treatment): 100%
chlorosis and phytotoxicity [7]: significant chlorosis and phytotoxicity
corn seed germination at day 3 (corn seeds): some level of germination
